Reference: patent US20240182487A1, “MACROCYCLES AND THEIR USE” (BLOSSOMHILL THERAPEUTICS, INC., priority 2020, published 2024)

Tests used:
Type in all cases: biochemical
[1] = molecular target: EGFR Δ746-750/T790M/C797S mutant (Homo sapiens (Human), UniProt P00533, C797S/DEL746-750/T790M); experiment: HotSpot radiometric kinase assay, EGFR Δ746-750/T790M/C797S; details: radiometric filter-binding, 10 μM ATP
Experimental: (§1) Biochemical Assays for Inhibition of Wild-Type and Mutant EGFRs
(§2) The inhibitory activities against EGFR WT, EGFR Δ752-759 mutant, EGFR Δ746-750/T790M mutant, EGFR Δ746-750/C797S mutant, EGFR Δ746-750/T790M/C797S mutant. […] Briefly, specific kinase/substrate pairs along with required cofactors were prepared in reaction buffer; 20 mM Hepes pH 7.5, 10 mM MgCl2, 1 mM EGTA, 0.02% Brij35, 0.02 mg/ml BSA, 0.1 mM Na3VO4, 2 mM DTT, 1% DMSO. Compounds were delivered into the reaction, followed ˜20 minutes later by addition of a mixture of ATP (Sigma, St. Louis MO) and ^33P ATP (Perkin Elmer, Waltham MA) to a final concentration of 10 μM. Reactions were carried out at room temperature for 120 min, followed by spotting of the reactions onto P81 ion exchange filter paper (Whatman Inc., Piscataway, NJ). Unbound phosphate was removed by extensive washing of filters in 0.75% phosphoric acid. […] IC50 values and curve fits were obtained using Prism (GraphPad Software).

[2] = molecular target: EGFR (Δ746-750) (Homo sapiens (Human), UniProt P00533, DEL746-750); experiment: HotSpot radiometric kinase assay, EGFR Δ746-750; details: radiometric filter-binding, 10 μM ATP
Chain of EGFR (Δ746-750) (P00533 other isoform, or with tags, fused parts or gaps del 1-668/del 746-750 limits assumed): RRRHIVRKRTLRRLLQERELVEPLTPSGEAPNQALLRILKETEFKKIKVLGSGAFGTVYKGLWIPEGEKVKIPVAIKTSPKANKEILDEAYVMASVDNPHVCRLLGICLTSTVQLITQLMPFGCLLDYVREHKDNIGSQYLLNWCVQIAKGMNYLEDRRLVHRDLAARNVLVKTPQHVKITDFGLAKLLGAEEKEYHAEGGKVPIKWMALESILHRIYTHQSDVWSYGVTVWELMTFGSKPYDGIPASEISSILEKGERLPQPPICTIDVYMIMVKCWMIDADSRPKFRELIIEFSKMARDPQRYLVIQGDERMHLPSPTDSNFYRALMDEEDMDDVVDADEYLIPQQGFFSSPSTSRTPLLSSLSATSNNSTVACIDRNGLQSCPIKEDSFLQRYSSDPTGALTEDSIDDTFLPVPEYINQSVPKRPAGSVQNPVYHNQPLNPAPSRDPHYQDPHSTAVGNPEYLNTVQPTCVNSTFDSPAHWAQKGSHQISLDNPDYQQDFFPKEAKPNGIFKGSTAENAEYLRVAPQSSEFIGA

[3] = molecular target: EGFR WT (Homo sapiens (Human), UniProt P00533); experiment: HotSpot radiometric kinase assay, EGFR WT; details: radiometric filter-binding, 10 μM ATP
Chain of EGFR WT (P00533 25-1210): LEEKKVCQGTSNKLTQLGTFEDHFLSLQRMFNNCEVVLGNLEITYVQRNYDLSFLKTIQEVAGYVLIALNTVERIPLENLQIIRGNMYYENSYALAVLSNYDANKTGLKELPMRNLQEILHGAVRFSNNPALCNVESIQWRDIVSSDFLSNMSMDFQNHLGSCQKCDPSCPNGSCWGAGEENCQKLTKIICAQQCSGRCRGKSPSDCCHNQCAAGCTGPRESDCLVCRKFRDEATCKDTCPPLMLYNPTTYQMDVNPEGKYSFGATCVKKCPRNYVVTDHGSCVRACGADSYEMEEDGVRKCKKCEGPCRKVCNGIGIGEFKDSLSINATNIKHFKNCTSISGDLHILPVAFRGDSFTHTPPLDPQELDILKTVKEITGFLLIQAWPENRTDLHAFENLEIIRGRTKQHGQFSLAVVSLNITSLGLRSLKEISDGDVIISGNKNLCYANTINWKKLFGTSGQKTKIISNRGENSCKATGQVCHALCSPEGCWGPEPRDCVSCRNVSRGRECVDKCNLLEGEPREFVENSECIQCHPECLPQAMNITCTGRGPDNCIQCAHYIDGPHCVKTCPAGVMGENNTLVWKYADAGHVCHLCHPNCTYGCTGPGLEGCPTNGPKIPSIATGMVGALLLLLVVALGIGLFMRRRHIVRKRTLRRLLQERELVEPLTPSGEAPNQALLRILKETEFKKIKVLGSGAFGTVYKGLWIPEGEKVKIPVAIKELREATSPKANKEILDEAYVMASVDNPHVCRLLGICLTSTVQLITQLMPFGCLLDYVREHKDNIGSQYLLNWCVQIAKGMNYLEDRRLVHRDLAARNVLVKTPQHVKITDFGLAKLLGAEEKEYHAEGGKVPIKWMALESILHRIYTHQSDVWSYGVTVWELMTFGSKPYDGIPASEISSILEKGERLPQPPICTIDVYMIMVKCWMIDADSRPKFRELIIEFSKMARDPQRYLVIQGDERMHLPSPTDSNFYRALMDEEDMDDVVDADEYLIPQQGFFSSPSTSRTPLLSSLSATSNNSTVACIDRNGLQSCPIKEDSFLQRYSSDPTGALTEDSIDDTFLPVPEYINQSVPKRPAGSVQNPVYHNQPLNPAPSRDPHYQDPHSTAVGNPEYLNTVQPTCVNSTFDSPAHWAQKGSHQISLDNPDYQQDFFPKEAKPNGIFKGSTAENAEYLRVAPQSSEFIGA
Experimental: as §1, §2

[4] = molecular target: EGFR L858R/T790M mutant (Homo sapiens (Human), UniProt P00533, L858R/T790M); experiment: HotSpot radiometric kinase assay, EGFR L858R/T790M; details: radiometric filter-binding, 10 μM ATP; read-out: EGFR (L858R/T790M)_IC50
[5] = molecular target: EGFR L858R/T790M/C797S mutant (Homo sapiens (Human), UniProt P00533, C797S/L858R/T790M); experiment: HotSpot radiometric kinase assay, EGFR L858R/T790M/C797S; details: radiometric filter-binding, 10 μM ATP; read-out: EGFR (L858R/T790M/C797S/)_IC50
[6] = molecular target: EGFR Δ746-750/C797S mutant (Homo sapiens (Human), UniProt P00533, C797S/DEL746-750); experiment: HotSpot radiometric kinase assay, EGFR Δ746-750/C797S; details: radiometric filter-binding, 10 μM ATP
Chain of EGFR Δ746-750/C797S mutant (P00533 other isoform, or with tags, fused parts or gaps C797S/del 1-668/del 746-750 limits assumed): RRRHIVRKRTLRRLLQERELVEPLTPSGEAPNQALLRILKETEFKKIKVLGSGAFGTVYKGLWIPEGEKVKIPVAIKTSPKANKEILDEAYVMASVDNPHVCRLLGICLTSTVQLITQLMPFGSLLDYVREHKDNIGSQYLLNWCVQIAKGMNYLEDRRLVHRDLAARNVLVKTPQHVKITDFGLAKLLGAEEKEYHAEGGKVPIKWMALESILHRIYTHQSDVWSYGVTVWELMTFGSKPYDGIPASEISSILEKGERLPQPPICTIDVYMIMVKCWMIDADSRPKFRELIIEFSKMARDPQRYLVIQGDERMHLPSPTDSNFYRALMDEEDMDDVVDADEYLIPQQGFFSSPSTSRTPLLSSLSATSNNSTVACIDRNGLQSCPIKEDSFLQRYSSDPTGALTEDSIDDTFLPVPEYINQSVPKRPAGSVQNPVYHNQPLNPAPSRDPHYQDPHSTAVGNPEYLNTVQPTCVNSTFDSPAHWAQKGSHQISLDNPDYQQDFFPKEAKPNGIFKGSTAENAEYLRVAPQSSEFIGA
Experimental: as §1, §2

[7] = molecular target: EGFR Δ746-750/T790M mutant (Homo sapiens (Human), UniProt P00533, DEL746-750/T790M); experiment: HotSpot radiometric kinase assay, EGFR Δ746-750/T790M; details: radiometric filter-binding, 10 μM ATP
Experimental: as §1, §2

[8] = molecular target: EGFR L858R mutant (Homo sapiens (Human), UniProt P00533, L858R); experiment: HotSpot radiometric kinase assay, EGFR L858R; details: radiometric filter-binding, 10 μM ATP
Chain of EGFR L858R mutant (P00533 25-1210 L858R): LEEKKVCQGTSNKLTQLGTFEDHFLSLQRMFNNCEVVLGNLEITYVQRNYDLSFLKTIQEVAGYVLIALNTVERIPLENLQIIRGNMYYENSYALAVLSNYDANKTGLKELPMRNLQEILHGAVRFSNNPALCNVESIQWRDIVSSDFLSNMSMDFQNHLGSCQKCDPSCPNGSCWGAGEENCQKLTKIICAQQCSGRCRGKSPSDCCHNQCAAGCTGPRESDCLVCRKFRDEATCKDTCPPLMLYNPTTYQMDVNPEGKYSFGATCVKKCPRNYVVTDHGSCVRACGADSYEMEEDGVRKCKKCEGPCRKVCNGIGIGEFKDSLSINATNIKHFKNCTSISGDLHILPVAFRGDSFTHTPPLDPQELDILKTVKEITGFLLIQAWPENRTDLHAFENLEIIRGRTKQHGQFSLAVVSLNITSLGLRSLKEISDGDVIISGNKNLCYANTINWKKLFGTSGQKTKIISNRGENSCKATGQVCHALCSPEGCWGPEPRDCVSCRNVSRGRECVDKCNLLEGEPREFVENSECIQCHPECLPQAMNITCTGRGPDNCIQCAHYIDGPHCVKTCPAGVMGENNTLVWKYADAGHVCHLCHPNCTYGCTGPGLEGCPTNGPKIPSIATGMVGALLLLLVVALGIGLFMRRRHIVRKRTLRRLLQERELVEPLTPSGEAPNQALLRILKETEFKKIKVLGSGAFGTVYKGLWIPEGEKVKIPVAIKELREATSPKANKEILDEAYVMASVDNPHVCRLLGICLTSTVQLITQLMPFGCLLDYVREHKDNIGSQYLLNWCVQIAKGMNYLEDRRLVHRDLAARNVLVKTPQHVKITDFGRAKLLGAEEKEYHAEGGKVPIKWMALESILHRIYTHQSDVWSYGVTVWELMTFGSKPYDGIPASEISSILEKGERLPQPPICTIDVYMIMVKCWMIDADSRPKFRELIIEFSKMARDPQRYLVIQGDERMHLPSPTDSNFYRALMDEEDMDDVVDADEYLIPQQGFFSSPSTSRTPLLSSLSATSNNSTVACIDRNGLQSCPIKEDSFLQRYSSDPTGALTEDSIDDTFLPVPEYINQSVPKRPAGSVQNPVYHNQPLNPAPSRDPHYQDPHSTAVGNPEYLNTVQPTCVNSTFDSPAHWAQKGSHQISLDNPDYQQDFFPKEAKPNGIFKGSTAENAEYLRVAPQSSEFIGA

[9] = molecular target: EGFR L858R/C797S mutant (Homo sapiens (Human), UniProt P00533, C797S/L858R); experiment: HotSpot radiometric kinase assay, EGFR L858R/C797S; details: radiometric filter-binding, 10 μM ATP
Chain of EGFR L858R/C797S mutant (P00533 25-1210 C797S/L858R): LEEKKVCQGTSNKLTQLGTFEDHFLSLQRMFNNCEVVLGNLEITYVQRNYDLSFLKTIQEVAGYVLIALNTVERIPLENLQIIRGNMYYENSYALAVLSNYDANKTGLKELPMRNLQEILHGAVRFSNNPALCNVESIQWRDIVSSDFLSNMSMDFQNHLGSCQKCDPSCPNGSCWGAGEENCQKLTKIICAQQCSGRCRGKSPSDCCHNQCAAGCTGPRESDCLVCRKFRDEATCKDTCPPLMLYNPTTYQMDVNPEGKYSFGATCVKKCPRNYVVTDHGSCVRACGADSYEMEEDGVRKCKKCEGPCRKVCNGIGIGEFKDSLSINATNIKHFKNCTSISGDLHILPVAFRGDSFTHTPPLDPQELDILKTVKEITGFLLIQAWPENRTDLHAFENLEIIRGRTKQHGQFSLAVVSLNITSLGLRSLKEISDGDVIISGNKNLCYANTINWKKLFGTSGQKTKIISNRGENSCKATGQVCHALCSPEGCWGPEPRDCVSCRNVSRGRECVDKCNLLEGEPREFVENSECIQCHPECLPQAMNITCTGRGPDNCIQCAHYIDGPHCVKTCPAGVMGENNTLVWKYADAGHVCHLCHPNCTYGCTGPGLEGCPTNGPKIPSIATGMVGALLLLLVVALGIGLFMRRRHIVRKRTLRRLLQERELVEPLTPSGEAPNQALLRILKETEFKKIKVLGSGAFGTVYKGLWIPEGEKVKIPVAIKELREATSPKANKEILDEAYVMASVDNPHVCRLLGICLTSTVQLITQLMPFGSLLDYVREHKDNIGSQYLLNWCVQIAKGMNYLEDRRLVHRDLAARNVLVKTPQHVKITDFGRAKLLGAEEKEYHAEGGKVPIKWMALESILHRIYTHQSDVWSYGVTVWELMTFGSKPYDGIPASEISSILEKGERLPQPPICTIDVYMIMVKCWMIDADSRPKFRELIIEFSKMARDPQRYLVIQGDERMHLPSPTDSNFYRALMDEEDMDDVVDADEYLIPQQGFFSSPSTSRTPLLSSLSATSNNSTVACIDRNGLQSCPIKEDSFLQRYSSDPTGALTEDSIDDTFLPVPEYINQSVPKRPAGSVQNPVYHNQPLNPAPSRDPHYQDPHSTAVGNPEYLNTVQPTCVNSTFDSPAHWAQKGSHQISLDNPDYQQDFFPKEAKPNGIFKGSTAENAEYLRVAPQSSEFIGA

| Structure (SMILES) | IC50 [1] [nM] | IC50 [2] [nM] | IC50 [3] [nM] | IC50 [4] [nM] | IC50 [5] [nM] | IC50 [6] [nM] | IC50 [7] [nM] | IC50 [8] [nM] | IC50 [9] [nM] |
| --- | --- | --- | --- | --- | --- | --- | --- | --- | --- |
| Cn1ncc2c1OCCCOc1ccccc1/C=C/c1n[nH]c3ccc-2nc13 [Cpd. 2, (18E)-8-methyl-2,8,11,12-tetrahydro-10H-3,5-ethenodipyrazolo[3,4-f:4′,3′-j][1,5,9]benzodioxazacyclopentadecine] | 29.3 | 49.1 | 554 | 301 | 692 | 16.2 | 22.9 | 258 | 595 |
| Cn1ncc2c1OCCCOc1ccccc1/C=C/c1n[nH]c3ccc-2cc13 [Cpd. 3, (11E)-1-methyl-19,20-dihydro-1H,8H,18H-10,7,4-(ethan[1]yl[1,2]diylidene)pyrazolo[3,4-f][1,5,12,13]benzodioxadiazacyclooctadecine] | 10.2 | 79 | 1050 | 138 | 278 | 24.4 | 13.2 | 374 | 1070 |
| Cc1ccc2c(n1)/C=C/c1n[nH]c3cnc(nc13)-c1cnn(C)c1C(C)OCCO2 (centres unmarked) [Cpd. 65, (18E)-8,9,16-trimethyl-8,9,11,12-tetrahydro-2H-5,3-(azenometheno)dipyrazolo[3,4-f:4′,3′-j]pyrido[2,3-n][1,4,9]dioxazacyclopentadecine] | 3.9 | 281 |  |  |  | 34.1 | 35.9 |  |  |
| CN(C)CCNC(=O)c1ccc2c(c1)/C=C/c1n[nH]c3cnc(cc13)-c1cnn(C)c1OCCCO2 [Cpd. 71] |  | 2.4 | 3.9 |  | 3.7 |  |  | 1.6 |  |
| CN(C)CCNC(=O)c1ccc2c(c1)OCCOCc1c(cnn1C)-c1cc3c(n[nH]c3cn1)/C=C/2 [Cpd. 81, (11E)-N-[2-(dimethylamino)ethyl]-1-methyl-1,18,19,21-tetrahydro-8H-10,7,4-(ethan[1]yl[1,2]diylidene)pyrazolo[3,4-f][1,4,9,12,13]benzodioxatriazacyclooctadecine-15-carboxamide] |  | 40.1 | 94.6 |  | 14.1 |  |  | 28.1 |  |
| CN1CCN(C(=O)c2ccc3c(c2)/C=C/c2n[nH]c4cnc(cc24)-c2cnn(C)c2COCCO3)CC1 [Cpd. 96, (4-methylpiperazin-1-yl)[(11E)-1-methyl-1,18,19,21-tetrahydro-8H-10,7,4-(ethan[1]yl[1,2]diylidene)pyrazolo[3,4-f][1,4,9,12,13]benzodioxatriazacyclooctadecin-14-yl]methanone] |  | 740 |  |  |  |  |  |  |  |
| Cc1nc2cc3c(n[nH]c13)/C=C/c1cc(F)ccc1OCCCOc1c-2cnn1C [Cpd. 98, (11E)-14-fluoro-1,6-dimethyl-19,20-dihydro-1H,8H,18H-10,7,4-(ethan[1]yl[1,2]diylidene)pyrazolo[3,4-f][1,5,9,12,13]benzodioxatriazacyclooctadecine] |  | 836 |  |  |  |  |  |  |  |
| CN1CCOCCN(c2ccc(F)c(Cl)c2)c2cc3c(n[nH]c3cn2)/C=C/c2cn(C)nc2C1=O [Cpd. 99, (17E)-6-(3-chloro-4-fluorophenyl)-12,15-dimethyl-2,7,8,11,12,15-hexahydro-6H-5,3-(azenometheno)dipyrazolo[3,4-f:3′,4′-j][1,4,14]oxadiazacyclohexadecin-13(10H)-one] | 3380 | 84.4 |  |  |  | 11.3 | 8530 |  |  |

More lines, in order of falling IC50 [2], values ahead:

| IC50 [1] [nM] | IC50 [2] [nM] | IC50 [3] [nM] | IC50 [4] [nM] | IC50 [5] [nM] | IC50 [6] [nM] | IC50 [7] [nM] | IC50 [8] [nM] | IC50 [9] [nM] | Structure (SMILES) |
| --- | --- | --- | --- | --- | --- | --- | --- | --- | --- |
| 0.5 | 45.5 |  |  |  | 5.7 | 4.1 |  |  | CCc1nn(C)c2c1/C=C/c1n[nH]c3cnc(cc13)-c1cc(F)ccc1OCCN(C)C2=O [Cpd. 62, (18E)-17-ethyl-7-fluoro-13,15-dimethyl-2,12,13,15-tetrahydro-5,3-(azenometheno)dipyrazolo[3,4-f:3′,4′-j][1,4]benzoxazacyclopentadecin-14(11H)-one] |
| 5.1 | 32.9 |  |  |  | 61.3 | 38.4 |  |  | Cn1ncc2c1COCCOc1ccccc1/C=C/c1n[nH]c3cnc-2nc13 [Cpd. 16, (18E)-8-methyl-8,9,11,12-tetrahydro-2H-5,3-(azenometheno)dipyrazolo[3,4-f:4′,3′-j][1,4,9]benzodioxazacyclopentadecine] |
|  | 24 |  |  |  |  |  |  |  | Cn1ncc2c1OCCCOc1ccc(F)cc1/C=C/c1n[nH]c3cnc-2cc13 [Cpd. 100, (11E)-14-fluoro-1-methyl-19,20-dihydro-1H,8H,18H-10,7,4-(ethan[1]yl[1,2]diylidene)pyrazolo[3,4-f][1,5,9,12,13]benzodioxatriazacyclooctadecine] |
| 0.2 | 14.9 |  |  |  | 7.7 | 2.8 |  |  | Cn1ncc2c1COCCOc1ccccc1/C=C/c1n[nH]c3cnc-2cc13 [Cpd. 63, (11E)-1-methyl-1,18,19,21-tetrahydro-8H-10,7,4-(ethan[1]yl[1,2]diylidene)pyrazolo[3,4-f][1,4,9,12,13]benzodioxatriazacyclooctadecine] |
|  | 9.7 |  |  |  |  |  |  |  | CN1CCC(NC(=O)c2ccc3c(c2)/C=C/c2n[nH]c4cnc(cc24)-c2cnn(C)c2OCCCO3)CC1 [Cpd. 97, (11E)-1-methyl-N-(1-methylpiperidin-4-yl)-19,20-dihydro-1H,8H,18H-10,7,4-(ethan[1]yl[1,2]diylidene)pyrazolo[3,4-f][1,5,9,12,13]benzodioxatriazacyclooctadecine-14-carboxamide] |
| 0.22 | 6.8 | 46.4 | 4.1 | 15 | 4.8 | 2.1 | 29.1 | 55 | Cn1ncc2c1OCCCOc1ccccc1/C=C/c1n[nH]c3cnc-2cc13 [Cpd. 1, (11E)-1-methyl-19,20-dihydro-1H,8H,18H-10,7,4-(ethan[1]yl[1,2]diylidene)pyrazolo[3,4-f][1,5,9,12,13]benzodioxatriazacyclooctadecine] |
